Reference: patent US11530200B2, “Compounds” (Inflazome Limited, priority 2018, dated 2022)
Structures can show the parent of a compound that is named as a salt.

What was measured:
[1] = PK protocol, intravenous administration in rats; format: in vivo; conditions: rat, plasma, male Sprague Dawley rats, 1 mg/kg; for Vd: read-out: Vdss
Protocol: Pharmacokinetic parameters were determined in male Sprague Dawley rats (Vital River Laboratory Animal Technology Co Ltd, Beijing, China, 7-9 weeks old). Animals were group housed during the study and maintained under a 12 h light/dark cycle. For intravenous administration, compounds were formulated as a solution in DMSO:PBS [10:90] in 2 mL/kg dosing volume and administered via tail vein. Serial blood samples (about 200 μL) were taken from each animal at each of 8 time-points post dose (0.083, 0.25, 0.5, 1, 2, 4, 8 and 24 h). Samples were held on ice for no longer than 30 minutes before centrifugation (5,696 rpm (3,000 g) for 15 minutes) for plasma generation. Plasma was frozen on dry ice prior to bioanalysis. PK parameters were generated from LC-MS/MS data using Phoenix WinNonlin 6.3 software.

[2] = target: NLRP3 (Homo sapiens (Human), UniProt Q96P20); test: THP-1 cells pyroptosis assay (LPS priming, nigericin, resazurin readout); format: cell-based; conditions: 1.0 μg/ml LPS, nigericin 5 μM, NLRP3 inhibitory activity
Chain of NLRP3 (Q96P20 whole entry): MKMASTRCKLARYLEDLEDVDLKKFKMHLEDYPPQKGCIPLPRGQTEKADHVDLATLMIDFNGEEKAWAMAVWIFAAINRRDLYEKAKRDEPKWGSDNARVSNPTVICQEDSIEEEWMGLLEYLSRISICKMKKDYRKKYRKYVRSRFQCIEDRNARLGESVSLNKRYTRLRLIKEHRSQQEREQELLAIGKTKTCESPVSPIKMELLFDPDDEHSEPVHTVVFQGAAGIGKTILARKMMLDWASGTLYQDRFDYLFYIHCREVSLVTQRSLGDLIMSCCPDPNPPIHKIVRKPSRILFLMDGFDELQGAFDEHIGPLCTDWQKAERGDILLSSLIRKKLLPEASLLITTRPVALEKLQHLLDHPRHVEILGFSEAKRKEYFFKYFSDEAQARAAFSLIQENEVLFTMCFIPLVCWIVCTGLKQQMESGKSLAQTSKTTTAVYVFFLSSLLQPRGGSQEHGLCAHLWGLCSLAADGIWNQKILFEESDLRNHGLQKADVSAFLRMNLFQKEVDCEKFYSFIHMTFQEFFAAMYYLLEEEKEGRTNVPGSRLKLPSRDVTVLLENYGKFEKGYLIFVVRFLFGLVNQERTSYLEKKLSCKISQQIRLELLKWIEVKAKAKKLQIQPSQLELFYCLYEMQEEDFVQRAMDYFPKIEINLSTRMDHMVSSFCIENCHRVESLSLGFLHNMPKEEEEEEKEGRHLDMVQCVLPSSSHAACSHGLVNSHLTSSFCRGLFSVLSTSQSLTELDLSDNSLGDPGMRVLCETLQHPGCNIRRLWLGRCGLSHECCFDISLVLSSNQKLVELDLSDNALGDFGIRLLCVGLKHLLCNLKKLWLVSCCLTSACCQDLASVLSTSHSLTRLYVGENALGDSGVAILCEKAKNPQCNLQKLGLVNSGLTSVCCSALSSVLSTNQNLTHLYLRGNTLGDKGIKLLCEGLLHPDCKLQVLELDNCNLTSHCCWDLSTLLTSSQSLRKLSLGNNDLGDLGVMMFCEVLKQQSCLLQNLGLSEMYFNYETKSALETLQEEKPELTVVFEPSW
Protocol: THP-1 cells (ATCC #TIB-202) were grown in RPMI containing L-glutamine (Gibco #11835) supplemented with 1 mM sodium pyruvate (Sigma #S8636) and penicillin (100 units/ml)/streptomycin (0.1 mg/ml) (Sigma #P4333) in 10% Fetal Bovine Serum (FBS) (Sigma #F0804). The cells were routinely passaged and grown to confluency (10^6 cells/ml). On the day of the experiment, THP-1 cells were harvested and resuspended into RPMI medium (without FBS). The cells were then counted and viability (>90%) checked by Trypan blue (Sigma #T8154). Appropriate dilutions were made to give a concentration of 625,000 cells/ml. To this diluted cell solution was added LPS (Sigma #L4524) to give a 1 μg/ml Final Assay Concentration (FAC). 40 μl of the final preparation was aliquoted into each well of a 96-well plate. The plate thus prepared was used for compound screening. The following method step-by-step assay was followed for compound screening. • 1. Seed THP-1 cells (25,000 cells/well) containing 1.0 μg/ml LPS in 40 μl of RPMI medium (without FBS) in 96-well, black walled, clear bottom cell culture plates coated with poly-D-lysine (VWR #734-0317) • 2. Add […] compound (8 points half-log dilution, with […] top dose) or vehicle (DMSO 0.1% FAC) to the appropriate wells • 3. Incubate for 3 hrs at 37° C., 5% CO2 • 4. Add 5 μl nigericin (Sigma #N7143) (FAC 5 μM) to all wells • 5. Incubate for 1 hr at 37° C., 5% CO2 • 6. At the end of the incubation period, spin plates at 300×g for 3 mins and remove supernatant • 7. Then add 50 μl of resazurin (Sigma #R7017) (FAC 100 μM resazurin in RPMI medium without FBS) and incubate plates for a further 1-2 hrs at 37° C. and 5% CO2 • 8. Plates were read in an Envision reader at Ex 560 nm and Em 590 nm • 9. IC50 data is fitted to a non-linear regression equation (log inhibitor vs response-variable slope 4-parameters) The results of the pyroptosis assay are summarised in Table 1 below as THP IC50.

| AUC [1] [ng·h/mL] | clearance [1] [mL/min/kg] | half-life [1] [h] | Vd [1] [L/kg] | IC50 [2] [nM] | Structure (SMILES) |
| --- | --- | --- | --- | --- | --- |
| 1560 | 10.7 | 4.4 | 0.95 | 1000 to 5000 | CC(C)c1cc(F)cc(-c2cccnc2)c1CC(=O)NS(=O)(=O)c1cnn(C2CC2)c1 [Example 11, N-((1-Cyclopropyl-1H-pyrazol-4-yl)sulfonyl)-2-(4-fluoro-2-isopropyl-6-(pyridin-3-yl)phenyl)acetamide] |
| 1550 | 15.4 | 16.4 | 6.52 | ≤ 1000 | COc1cc(-c2cc(F)cc(C(C)C)c2CC(=O)NS(=O)(=O)c2cnn(C3CC3)c2)ccn1 [Example 18, N-((1-Cyclopropyl-1H-pyrazol-4-yl)sulfonyl)-2-(4-fluoro-2-isopropyl-6-(2-methoxypyridin-4-yl)phenyl)acetamide, potassium salt] |
| 827 | 20.2 | 9.3 | 6.15 | 1000 to 5000 | COc1cc(-c2cc(F)cc(C(C)C)c2CC(=O)NS(=O)(=O)c2ncn(C3CC3)n2)ccn1 [Example 21, N-((1-Cyclopropyl-1H-1,2,4-triazol-3-yl)sulfonyl)-2-(4-fluoro-2-isopropyl-6-(2-methoxypyridin-4-yl)phenyl)acetamide] |
| 1270 | 13.1 | 2.6 | 1.94 | 1000 to 5000 | CC(C)c1cc(F)cc(C(C)C)c1CC(=O)NS(=O)(=O)c1cnn(C2CC2)c1 [Example 24, N-((1-Cyclopropyl-1H-pyrazol-4-yl)sulfonyl)-2-(4-fluoro-2,6-diisopropylphenyl)acetamide] |
